Publication PMC5218480 (PLoS ONE, 2017)

System: MV-4-11 cells
Experiment: Gene expression microarray analysis (Affymetrix PrimeView) and GSEA
Type: cell-based, human
Set-up: RFU PODN (11730768_x_at) / Fold change /veh PODN (11730768_x_at) / RFU LINC00158 (11744669_a_at) / Fold change /veh LINC00158 (11744669_a_at) / RFU DUSP10 (11751237_a_at) / Fold change /veh DUSP10 (11751237_a_at) / RFU ID3 (11757404_x_at) / Fold change /veh ID3 (11757404_x_at) / RFU PLEKHG5 (11737974_s_at) / Fold change /veh PLEKHG5 (11737974_s_at) / RFU LRRC4B (11730491_at) / Fold change /veh LRRC4B (11730491_at) / RFU GIMAP4 (11747438_a_at) / Fold change /veh GIMAP4 (11747438_a_at) / RFU KRT8 (11758183_x_at) / Fold change /veh KRT8 (11758183_x_at) / RFU CNN1 (11734310_a_at) / Fold change /veh CNN1 (11734310_a_at) / RFU VPS37D (11726825_at) / Fold change /veh VPS37D (11726825_at) / RFU C10orf10 (11716522_x_at) / Fold change /veh C10orf10 (11716522_x_at) / RFU KIR2DL2 /// KIR2DL4 /// KIR2DL5A /// KIR2DL5B /// KIR2DS1 /// KIR2DS2 /// KIR2DS3 /// KIR2DS4 /// KIR3DL3 /// KIR3DL3 /// KIR3DS1 (11738374_at) / Fold change /veh KIR2DL2 /// KIR2DL4 /// KIR2DL5A /// KIR2DL5B /// KIR2DS1 /// KIR2DS2 /// KIR2DS3 /// KIR2DS4 /// KIR3DL3 /// KIR3DL3 /// KIR3DS1 (11738374_at) / RFU C1QL1 (11718748_at) / Fold change /veh C1QL1 (11718748_at) / RFU TMPRSS4 (11747572_a_at) / Fold change /veh TMPRSS4 (11747572_a_at) / RFU HAMP (11756126_x_at) / Fold change /veh HAMP (11756126_x_at) / RFU RNFT2 (11725882_a_at) / Fold change /veh RNFT2 (11725882_a_at) / RFU NR4A2 (11747474_a_at) / Fold change /veh NR4A2 (11747474_a_at) / RFU ABCC12 (11746883_a_at) / Fold change /veh ABCC12 (11746883_a_at) / RFU TMEM136 (11760407_x_at) / Fold change /veh TMEM136 (11760407_x_at) / RFU CLDN22 /// WWC2 (11732394_at) / Fold change /veh CLDN22 /// WWC2 (11732394_at) / RFU HLA-DPB1 (11760878_x_at) / Fold change /veh HLA-DPB1 (11760878_x_at) / RFU SPINT1 (11716480_a_at) / Fold change /veh SPINT1 (11716480_a_at) / RFU GAP43 (11754022_s_at) / Fold change /veh GAP43 (11754022_s_at) / RFU A4GNT (11735810_at) / Fold change /veh A4GNT (11735810_at) / RFU PRB3 (11715151_x_at) / Fold change /veh PRB3 (11715151_x_at) / RFU TUBB4B (11761932_at) / Fold change /veh TUBB4B (11761932_at) / RFU CAPN14 (11732068_a_at) / Fold change /veh CAPN14 (11732068_a_at) / RFU TMCC2 (11721928_a_at) / Fold change /veh TMCC2 (11721928_a_at) / RFU IRGQ (11745062_a_at) / Fold change /veh IRGQ (11745062_a_at) / RFU FAM174B (11720279_a_at) / Fold change /veh FAM174B (11720279_a_at) / RFU TMPRSS4 (11748680_a_at) / Fold change /veh TMPRSS4 (11748680_a_at) / RFU FAM212B (11763350_a_at) / Fold change /veh FAM212B (11763350_a_at) / RFU PLEKHG5 (11743358_a_at) / Fold change /veh PLEKHG5 (11743358_a_at) / RFU ZSCAN30 (11745921_a_at) / Fold change /veh ZSCAN30 (11745921_a_at) / RFU CMKLR1 (11741424_a_at) / Fold change /veh CMKLR1 (11741424_a_at) / RFU LOC101060620 /// MAPK8IP1 (11723275_at) / Fold change /veh LOC101060620 /// MAPK8IP1 (11723275_at) / RFU SPTSSB (11747773_x_at) / Fold change /veh SPTSSB (11747773_x_at) / RFU PRSS12 (11739890_at) / Fold change /veh PRSS12 (11739890_at) / RFU BIN1 (11741810_x_at) / Fold change /veh BIN1 (11741810_x_at) / RFU WNT11 (11732464_a_at) / Fold change /veh WNT11 (11732464_a_at) / RFU C10orf10 (11716521_a_at) / Fold change /veh C10orf10 (11716521_a_at) / RFU C5orf56 (11738089_at) / Fold change /veh C5orf56 (11738089_at) / RFU CYB561 (11721691_x_at) / Fold change /veh CYB561 (11721691_x_at) / RFU ANKRD19P (11752326_a_at) / Fold change /veh ANKRD19P (11752326_a_at) / RFU OR2T12 /// OR2T33 /// OR2T8 (11738714_s_at) / Fold change /veh OR2T12 /// OR2T33 /// OR2T8 (11738714_s_at) / RFU VCAN (11748164_a_at) / Fold change /veh VCAN (11748164_a_at) / RFU JSRP1 (11732532_at) / Fold change /veh JSRP1 (11732532_at) / RFU KRTAP10-11 (11738290_x_at) / Fold change /veh KRTAP10-11 (11738290_x_at) / RFU MYO3A (11730013_a_at) / Fold change /veh MYO3A (11730013_a_at) / RFU EBF3 (11725865_a_at) / Fold change /veh EBF3 (11725865_a_at) / RFU CAMK2N1 (11719241_x_at) / Fold change /veh CAMK2N1 (11719241_x_at) / RFU C5orf56 (11738088_a_at) / Fold change /veh C5orf56 (11738088_a_at) / RFU OLFML3 (11715873_a_at) / Fold change /veh OLFML3 (11715873_a_at) / RFU LOC100653217 /// NTM (11731650_a_at) / Fold change /veh LOC100653217 /// NTM (11731650_a_at) / RFU MAPK11 (11762145_a_at) / Fold change /veh MAPK11 (11762145_a_at) / RFU FIZ1 (11724087_x_at) / Fold change /veh FIZ1 (11724087_x_at) / RFU OASL (11726364_x_at) / Fold change /veh OASL (11726364_x_at) / RFU SOX15 (11748057_x_at) / Fold change /veh SOX15 (11748057_x_at) / RFU CD79A (11719716_a_at) / Fold change /veh CD79A (11719716_a_at) / RFU HIST1H1D (11736915_at) / Fold change /veh HIST1H1D (11736915_at) / RFU CASKIN2 (11723855_a_at) / Fold change /veh CASKIN2 (11723855_a_at) / RFU LOC730098 (11760151_x_at) / Fold change /veh LOC730098 (11760151_x_at) / RFU OR4N2 (11742367_at) / Fold change /veh OR4N2 (11742367_at) / RFU PRRT2 (11749266_a_at) / Fold change /veh PRRT2 (11749266_a_at) / RFU SNX32 (11753110_a_at) / Fold change /veh SNX32 (11753110_a_at) / RFU CDHR5 (11726645_a_at) / Fold change /veh CDHR5 (11726645_a_at) / RFU RCAN1 (11760418_a_at) / Fold change /veh RCAN1 (11760418_a_at) / RFU FAM167A (11723789_a_at) / Fold change /veh FAM167A (11723789_a_at) / RFU FAM26E (11764081_at) / Fold change /veh FAM26E (11764081_at) / RFU ISYNA1 (11749810_s_at) / Fold change /veh ISYNA1 (11749810_s_at) / RFU ACY1 (11761880_at) / Fold change /veh ACY1 (11761880_at) / RFU 11764098_at / Fold change /veh 11764098_at / RFU SAMD14 (11745864_x_at) / Fold change /veh SAMD14 (11745864_x_at) / RFU NPB (11741838_a_at) / Fold change /veh NPB (11741838_a_at) / RFU TMPRSS6 (11731388_a_at) / Fold change /veh TMPRSS6 (11731388_a_at) / RFU KRTAP10-2 (11738614_at) / Fold change /veh KRTAP10-2 (11738614_at) / RFU ARHGAP8 /// PRR5-ARHGAP8 (11727945_x_at) / Fold change /veh ARHGAP8 /// PRR5-ARHGAP8 (11727945_x_at) / RFU KRTAP5-7 /// NADSYN1 (11734609_at) / Fold change /veh KRTAP5-7 /// NADSYN1 (11734609_at) / RFU RASL12 (11751679_a_at) / Fold change /veh RASL12 (11751679_a_at) / RFU CDKN2B (11736163_a_at) / Fold change /veh CDKN2B (11736163_a_at) / RFU PRF1 (11729649_at) / Fold change /veh PRF1 (11729649_at) / RFU, ZNF638 /// ZNF638-IT1 / Fold change vs veh, ZNF638 /// ZNF638-IT1 / RFU, PANK3 / Fold change vs veh, PANK3 / RFU, SH3YL1 / Fold change vs veh, SH3YL1 / RFU, ZEB2 / Fold change vs veh, ZEB2 / RFU, NRIP1 / Fold change vs veh, NRIP1 / RFU, PTTG1IP / Fold change vs veh, PTTG1IP / RFU, CAPN2 / Fold change vs veh, CAPN2 / RFU, MED14 / Fold change vs veh, MED14 / RFU, SNORA58 / Fold change vs veh, SNORA58 / RFU, C1orf63 / Fold change vs veh, C1orf63 / RFU, LRRFIP1 / Fold change vs veh, LRRFIP1 / RFU, NDUFAF7 / Fold change vs veh, NDUFAF7 / RFU, SLC12A2 / Fold change vs veh, SLC12A2 / RFU, IBTK / Fold change vs veh, IBTK / RFU, ESF1 / Fold change vs veh, ESF1 / Fold change vs veh, TMEM50B / RFU, TAOK1 / Fold change vs veh, TAOK1 / RFU, ACBD3 / Fold change vs veh, ACBD3 / RFU, TMA16 / Fold change vs veh, TMA16 / RFU, RWDD3 / Fold change vs veh, RWDD3 / RFU, BCAT1 / Fold change vs veh, BCAT1 / RFU, EDEM3 / Fold change vs veh, EDEM3 / RFU, TMEM33 / Fold change vs veh, TMEM33 / RFU, WDR75 / Fold change vs veh, WDR75 / RFU, AHCTF1 / Fold change vs veh, AHCTF1 / RFU, TFRC / Fold change vs veh, TFRC / RFU, ZDHHC17 / Fold change vs veh, ZDHHC17 / RFU, NOM1 / Fold change vs veh, NOM1 / RFU, ARL8B / Fold change vs veh, ARL8B / RFU, ZBTB11 / Fold change vs veh, ZBTB11 / RFU, TAMM41 / Fold change vs veh, TAMM41 / RFU, KIAA1704 /// LOC100996395 / Fold change vs veh, KIAA1704 /// LOC100996395 / RFU, ING1 / Fold change vs veh, ING1 / RFU, TRMT61B / Fold change vs veh, TRMT61B / RFU, FUBP3 / Fold change vs veh, FUBP3 / RFU, TP53 / Fold change vs veh, TP53 / RFU, TNKS2 / Fold change vs veh, TNKS2 / RFU, ZFP14 / Fold change vs veh, ZFP14 / RFU, ACTR2 / Fold change vs veh, ACTR2 / RFU, PPP3R1 / Fold change vs veh, PPP3R1 / RFU, PIK3R1 / Fold change vs veh, PIK3R1 / RFU, HNRNPA1 / Fold change vs veh, HNRNPA1 / RFU, RNF170 / Fold change vs veh, RNF170 / RFU, ZNF28 / Fold change vs veh, ZNF28 / RFU, RNGTT / Fold change vs veh, RNGTT / RFU, OGT / Fold change vs veh, OGT / RFU, BRD1 / Fold change vs veh, BRD1 / RFU, MARS / Fold change vs veh, MARS / RFU, ZNF655 / Fold change vs veh, ZNF655 / RFU, FAHD1 / Fold change vs veh, FAHD1 / RFU, BDP1 / Fold change vs veh, BDP1 / RFU, LRRCC1 / Fold change vs veh, LRRCC1 / RFU, ARID1A / Fold change vs veh, ARID1A / RFU, ZNF146 / Fold change vs veh, ZNF146 / RFU, ZNF330 / Fold change vs veh, ZNF330 / RFU, GPN3 / Fold change vs veh, GPN3 / RFU, C9orf123 / Fold change vs veh, C9orf123 / RFU, N4BP2L2 / Fold change vs veh, N4BP2L2 / RFU, ARFIP1 / Fold change vs veh, ARFIP1 / RFU, FAM179B / Fold change vs veh, FAM179B / RFU, BCL10 / Fold change vs veh, BCL10 / RFU, UHRF1BP1L / Fold change vs veh, UHRF1BP1L / RFU, BET1 / Fold change vs veh, BET1 / RFU, CNOT2 / Fold change vs veh, CNOT2 / RFU, ZNF268 / Fold change vs veh, ZNF268 / Fold change vs veh, ZNF507 / RFU, DGCR2 / Fold change vs veh, DGCR2 / RFU, WDSUB1 / Fold change vs veh, WDSUB1 / Fold change vs veh, HSP90B1 /// MIR3652 / RFU, ADSS / Fold change vs veh, ADSS / RFU, GK / Fold change vs veh, GK / RFU, ZNF148 / Fold change vs veh, ZNF148 / RFU, TAF9 / Fold change vs veh, TAF9 / RFU, SLC1A5 / Fold change vs veh, SLC1A5 / RFU, SLMO2 / Fold change vs veh, SLMO2 / RFU, ABCC4 / Fold change vs veh, ABCC4 / RFU, LOC101060439 /// RAP1B / Fold change vs veh, LOC101060439 /// RAP1B / RFU, RFX7 / Fold change vs veh, RFX7 / RFU, GTPBP10 / Fold change vs veh, GTPBP10 / RFU, CNEP1R1 / Fold change vs veh, CNEP1R1 / RFU, BIVM-ERCC5 /// ERCC5 / Fold change vs veh, BIVM-ERCC5 /// ERCC5 / RFU, ILF3 / Fold change vs veh, ILF3 / RFU 11762660_at / Fold change /veh 11762660_at / RFU VCAN (11757783_s_at) / Fold change /veh VCAN (11757783_s_at) / RFU DDX43 (11728927_at) / Fold change /veh DDX43 (11728927_at) / RFU KRT8 (11758188_x_at) / Fold change /veh KRT8 (11758188_x_at) / RFU NKD1 (11759106_at) / Fold change /veh NKD1 (11759106_at) / RFU SRD5A1 (11742802_a_at) / Fold change /veh SRD5A1 (11742802_a_at) / RFU TPSAB1 /// TPSB2 (11721975_s_at) / Fold change /veh TPSAB1 /// TPSB2 (11721975_s_at) / RFU GSTM3 (11746129_a_at) / Fold change /veh GSTM3 (11746129_a_at) / RFU IL23R (11737362_x_at) / Fold change /veh IL23R (11737362_x_at) / RFU TMEM51 (11727254_a_at) / Fold change /veh TMEM51 (11727254_a_at) / RFU PIWIL2 (11732686_x_at) / Fold change /veh PIWIL2 (11732686_x_at) / RFU ORM1 (11744905_x_at) / Fold change /veh ORM1 (11744905_x_at) / RFU CCDC152 (11743942_at) / Fold change /veh CCDC152 (11743942_at) / RFU ECM1 (11717891_a_at) / Fold change /veh ECM1 (11717891_a_at) / RFU IL23R (11748794_a_at) / Fold change /veh IL23R (11748794_a_at) / RFU TNFAIP8L3 (11732012_x_at) / Fold change /veh TNFAIP8L3 (11732012_x_at) / RFU MBOAT4 (11741988_at) / Fold change /veh MBOAT4 (11741988_at) / RFU 11764193_at / Fold change /veh 11764193_at / RFU TMEM53 (11763286_at) / Fold change /veh TMEM53 (11763286_at) / RFU MAGEB2 (11727129_at) / Fold change /veh MAGEB2 (11727129_at) / RFU TMEM200A (11744735_a_at) / Fold change /veh TMEM200A (11744735_a_at) / RFU CCDC152 (11751479_a_at) / Fold change /veh CCDC152 (11751479_a_at) / RFU FAM211A (11726209_a_at) / Fold change /veh FAM211A (11726209_a_at) / RFU RGS16 (11746705_a_at) / Fold change /veh RGS16 (11746705_a_at) / RFU VCAN (11755009_s_at) / Fold change /veh VCAN (11755009_s_at) / RFU RHOB (11743442_s_at) / Fold change /veh RHOB (11743442_s_at) / RFU RGS16 (11720943_a_at) / Fold change /veh RGS16 (11720943_a_at) / RFU RGS16 (11720944_at) / Fold change /veh RGS16 (11720944_at) / RFU, VPS4B / Fold change vs veh, VPS4B / RFU, CREB1 / Fold change vs veh, CREB1 / RFU, DNAJC13 / Fold change vs veh, DNAJC13 / RFU, GNAQ / Fold change vs veh, GNAQ / RFU, CDK5R1 / Fold change vs veh, CDK5R1 / RFU, ZRANB3 / Fold change vs veh, ZRANB3 / RFU, CUL4A / Fold change vs veh, CUL4A / RFU, CCNY / Fold change vs veh, CCNY / RFU, UFL1 / Fold change vs veh, UFL1 / RFU, COG3 / Fold change vs veh, COG3 / RFU, DIAPH2 / Fold change vs veh, DIAPH2 / RFU, SKA2 / Fold change vs veh, SKA2 / RFU, AFF3 / Fold change vs veh, AFF3 / RFU, LMF1 / Fold change vs veh, LMF1 / RFU, IPO11 / Fold change vs veh, IPO11 / RFU, DFFB / Fold change vs veh, DFFB / RFU, FOXP1 / Fold change vs veh, FOXP1 / RFU, CARD8 / Fold change vs veh, CARD8 / RFU, STRN3 / Fold change vs veh, STRN3 / RFU, ADK / Fold change vs veh, ADK / RFU, RASSF2 / Fold change vs veh, RASSF2 / RFU, WIPF1 / Fold change vs veh, WIPF1 / RFU, LARP1B / Fold change vs veh, LARP1B / RFU, RASA1 / Fold change vs veh, RASA1 / RFU, RB1 / Fold change vs veh, RB1 / RFU, PPFIA1 / Fold change vs veh, PPFIA1 / RFU, MAT2A / Fold change vs veh, MAT2A / RFU, CCT5 / Fold change vs veh, CCT5 / RFU, WDR92 / Fold change vs veh, WDR92 / RFU, CUX1 / Fold change vs veh, CUX1 / RFU, TTC7A / Fold change vs veh, TTC7A / RFU, TMEM135 / Fold change vs veh, TMEM135 / RFU, DEPTOR / Fold change vs veh, DEPTOR / RFU, CPM / Fold change vs veh, CPM / RFU, DNAJB6 / Fold change vs veh, DNAJB6 / RFU, CACNA2D3 / Fold change vs veh, CACNA2D3 / RFU, DTX4 / Fold change vs veh, DTX4 / RFU, TFCP2 / Fold change vs veh, TFCP2 / RFU, GMCL1 /// GMCL1P1 / Fold change vs veh, GMCL1 /// GMCL1P1 / RFU, AEBP2 / Fold change vs veh, AEBP2 / RFU, SNHG1 /// SNORD22 /// SNORD25 /// SNORD26 /// SNORD27 /// SNORD28 /// SNORD29 /// SNORD31 / Fold change vs veh, SNHG1 /// SNORD22 /// SNORD25 /// SNORD26 /// SNORD27 /// SNORD28 /// SNORD29 /// SNORD31 / Fold change (Aza/veh), C12orf56 (ProbeSet 11735607_a_at) / Fold change (ACY-1035/veh), C12orf56 (ProbeSet 11735607_a_at) / Fold change (Aza/veh), FGFR1OP (ProbeSet 11751329_s_at) / Fold change (ACY-1035/veh), FGFR1OP (ProbeSet 11751329_s_at) / Fold change (Aza/veh), VPS36 (ProbeSet 11739960_a_at) / Fold change (ACY-1035/veh), VPS36 (ProbeSet 11739960_a_at) / RFU SYPL1 (11715823_x_at) / Fold change /veh SYPL1 (11715823_x_at) / RFU IGFBP7 (11715501_s_at) / Fold change /veh IGFBP7 (11715501_s_at) / RFU REEP3 (11722064_at) / Fold change /veh REEP3 (11722064_at) / RFU IGLL1 (11728026_x_at) / Fold change /veh IGLL1 (11728026_x_at): dose or concentration left out as unconfirmed
Conditions: MV-4-11 cells, 48 hours

With `Nc1ncn([C@@H]2O[C@H](CO)[C@@H](O)[C@H]2O)c(=O)n1` [azacitidine] the “RFU IGFBP7 (11715501_s_at)” value was 202.56 RFU.
